Among the data in patent US20220106301A1, “ACETAMIDO-PHENYLBENZAMIDE DERIVATIVES AND METHODS OF USING THE SAME” (Athenex, Inc., priority 2020, published 2022) are IC50 values, retold here.

Structures are written as SMILES. A value given as a limit tells only on which side of the number the result lay.

The target of this experiment is CYP3A4 (Homo sapiens, UniProt P08684). Put plainly: Determination of CYP3A4 inhibitory activity (human liver microsome, Luciferin-IPA). Conditions: CYP3A4 IC50 (nM), 37° C. 11 minutes. In short, it runs like this: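 Final compound concentrations 37, 111, 333, 1000 and 3000 nM; reaction at 37° C for 11 min, then luciferin detection reagent 5 min at room temperature with luminescence read-out. IC50 from nonlinear regression of dose-response.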
Chain of CYP3A4 (P08684 whole entry): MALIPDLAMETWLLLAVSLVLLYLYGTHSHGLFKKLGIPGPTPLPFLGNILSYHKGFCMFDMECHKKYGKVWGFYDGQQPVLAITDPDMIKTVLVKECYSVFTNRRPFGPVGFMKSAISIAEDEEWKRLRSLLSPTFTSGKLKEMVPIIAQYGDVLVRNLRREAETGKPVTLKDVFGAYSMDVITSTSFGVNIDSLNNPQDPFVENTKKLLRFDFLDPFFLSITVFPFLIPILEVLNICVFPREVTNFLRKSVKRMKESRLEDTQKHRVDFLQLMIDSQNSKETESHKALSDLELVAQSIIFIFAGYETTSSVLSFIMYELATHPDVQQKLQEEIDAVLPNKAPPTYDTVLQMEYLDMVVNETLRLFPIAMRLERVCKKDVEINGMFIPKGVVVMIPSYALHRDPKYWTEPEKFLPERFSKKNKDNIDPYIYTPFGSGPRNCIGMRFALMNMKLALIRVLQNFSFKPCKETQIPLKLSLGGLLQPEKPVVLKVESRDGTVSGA
As a reminder, the IC50 is the concentration that inhibits the measured activity by half. Read a high IC50 as lower potency. For `CCN(CCc1ccc(NC(=O)c2cc(OC)c(OC)cc2NC(=O)c2cc(=O)c3ccccc3o2)cc1)Cc1ccc2[nH]ncc2c1` [Compound 184], the IC50 was > 1000 nM.
In the case of `CCN(CCc1ccc(NC(=O)c2cc(OC)c(OC)cc2NC(=O)c2cc(=O)c3ccccc3o2)cc1)Cc1ccc2cn[nH]c2c1` [Compound 185], the IC50 is > 1000 nM.
The same measure for `COc1cc(NC(=O)c2cc(=O)c3ccccc3o2)c(C(=O)Nc2ccc(CCN(Cc3ccc(-n4ccnc4)cc3)Cc3ccc4cnn(C)c4c3)cc2)cc1OC` [Compound 186]: 100 to 250 nM; for `COc1cc(NC(=O)c2cc(=O)c3ccccc3o2)c(C(=O)Nc2ccc(CCN(Cc3ccc(-c4ccncc4)cc3)Cc3ccc4cnn(C)c4c3)cc2)cc1OC` [Compound 187]: > 1000 nM; for `COc1cc(NC(=O)c2cc(=O)c3ccccc3o2)c(C(=O)Nc2ccc(CCN(Cc3ccc(-c4ccncc4)cc3)Cc3ccc4c(cnn4C)c3)cc2)cc1OC` [Compound 188]: > 1000 nM.
Then `COc1cc(NC(=O)c2cc(=O)c3ccccc3o2)c(C(=O)Nc2ccc(CCN(Cc3ccc(-c4cccnc4)cc3)Cc3ccc4c(cnn4C)c3)cc2)cc1OC` [Compound 189], with > 1000 nM; and `COc1cc(NC(=O)c2cc(=O)c3ccccc3o2)c(C(=O)Nc2ccc(CCN(C)Cc3ccc4c(ccn4C)c3)cc2)cc1OC` [Compound 190], with > 1000 nM.
The same measure for `CCn1ncc2cc(CN(C)CCc3ccc(NC(=O)c4cc(OC)c(OC)cc4NC(=O)c4cc(=O)c5ccccc5o4)cc3)ccc21` [Compound 191]: > 1000 nM; for `CCN(CCc1ccc(NC(=O)c2cc(OC)c(OC)cc2NC(=O)c2cc(=O)c3ccccc3o2)cc1)Cc1ccc2c(cnn2CC)c1` [Compound 192]: > 1000 nM.
For `COc1cc(NC(=O)c2cc(=O)c3cc(C)cc(C)c3o2)c(C(=O)Nc2ccc(CCN(Cc3cccc(-n4ccnc4)c3)Cc3ccc4c(cnn4C)c3)cc2)cc1OC` [Compound 197], the IC50 is > 1000 nM.
Then `COc1cc(NC(=O)C2CC(=O)c3cc(C)ccc3O2)c(C(=O)Nc2ccc(CCN(Cc3cccc(-n4ccnc4)c3)Cc3ccc4c(cnn4C)c3)cc2)cc1OC` (centres unmarked) [Compound 199], with 500 to 1000 nM.
Then `COc1cc(NC(=O)c2cc(=O)c3ccccc3o2)c(C(=O)Nc2ccc(CCN(Cc3cncs3)Cc3cccc4cnn(C)c34)cc2)cc1OC` [Compound 200], with > 1000 nM.
Turning to `COc1cc(NC(=O)c2cc(=O)c3ccccc3o2)c(C(=O)Nc2ccc(CCN(Cc3cccnc3)Cc3cccc4cnn(C)c34)cc2)cc1OC` [Compound 201], the IC50 lay in the range of 500 to 1000 nM.
Then `COc1cc(NC(=O)c2cc(=O)c3ccccc3o2)c(C(=O)Nc2ccc(CCN(Cc3cccc(-c4nc(C)no4)c3)Cc3cncs3)cc2)cc1OC` [Compound 202], with 500 to 1000 nM; and `COc1cc(NC(=O)c2cc(=O)c3ccccc3o2)c(C(=O)Nc2ccc(CCN(Cc3cccnc3)Cc3cccc(-c4nc(C)no4)c3)cc2)cc1OC` [Compound 203], with 250 to 500 nM; and `COc1cc(NC(=O)c2cc(=O)c3ccccc3o2)c(C(=O)Nc2ccc(CCN(Cc3cccc(-n4ccnc4)c3)Cc3ccc4nn(C)cc4c3)cc2)cc1OC` [Compound 204], with 250 to 500 nM.
Regarding `CCn1ncc2cc(CN(CCc3ccc(NC(=O)c4cc(OC)c(OC)cc4NC(=O)C4CC(=O)c5ccccc5O4)cc3)Cc3cccc(-n4ccnc4)c3)ccc21` (centres unmarked) [Compound 205], the IC50 fell in the range of 500 to 1000 nM.
In the case of `COc1cc(NC(=O)c2cc(=O)c3ccccc3o2)c(C(=O)Nc2ccc(CCN(Cc3cccc(-n4ccnc4)c3)Cc3ccc(C)c4ncccc34)cc2)cc1OC` [Compound 206], the IC50 is > 1000 nM.
Then `CCn1c2ccccc2c2cc(CN(CCc3ccc(NC(=O)c4cc(OC)c(OC)cc4NC(=O)c4cc(=O)c5ccccc5o4)cc3)Cc3cccc(-n4ccnc4)c3)ccc21` [Compound 212], with > 1000 nM; and `COc1cc(NC(=O)C2CC(=O)c3ccccc3O2)c(C(=O)Nc2ccc(CCN(Cc3cccc(-n4ccnc4)c3)Cc3cc(OC)c(OC)c(OC)c3)cc2)cc1OC` (centres unmarked) [Compound 213], with < 100 nM; and `COc1cc(NC(=O)c2cc(=O)c3ccccc3o2)c(C(=O)Nc2ccc(CCNCc3cccnc3)cc2)cc1OC` [Compound 214], with > 1000 nM.
`COc1cc(NC(=O)c2cc(=O)c3ccccc3o2)c(C(=O)Nc2ccc(CCN)cc2)cc1OC` [Compound 215]: the IC50 was > 1000 nM.
The same measure for `COc1cc(NC(=O)c2cc(=O)c3ccccc3o2)c(C(=O)Nc2ccc(CCN(Cc3cccnc3)Cc3cccc(-n4ccnc4)c3)cc2)cc1OC` [Compound 216]: 100 to 250 nM.
The same measure for `COc1cncc(CN(CCc2ccc(NC(=O)c3cc(OC)c(OC)cc3NC(=O)c3cc(=O)c4ccccc4o3)cc2)Cc2cccc(-n3ccnc3)c2)c1` [Compound 217]: 100 to 250 nM; for `COC(=O)c1ccc(CN(CCc2ccc(NC(=O)c3cc(OC)c(OC)cc3NC(=O)c3cc(=O)c4ccccc4o3)cc2)Cc2cccc(-n3ccnc3)c2)cc1` [Compound 218]: 100 to 250 nM; for `COc1ccc(CN(CCc2ccc(NC(=O)c3cc(OC)c(OC)cc3NC(=O)c3cc(=O)c4ccccc4o3)cc2)Cc2cccc(-n3ccnc3)c2)cc1C#N` [Compound 219]: 100 to 250 nM.
Then `COc1cncc(CN(CCc2ccc(NC(=O)c3cc(OC)c(OC)cc3NC(=O)c3cc(=O)c4ccccc4o3)cc2)Cc2ccc3c(c2)nnn3C)c1` [Compound 220], with 100 to 250 nM.
For `COc1cc(NC(=O)c2cc(=O)c3ccccc3o2)c(C(=O)Nc2ccc(CCN(Cc3cccnc3)Cc3ccc4c(c3)nnn4C)cc2)cc1OC` [Compound 221], the IC50 lay in the range of 250 to 500 nM.
The same measure for `COc1cncc(CN(CCc2ccc(NC(=O)c3cc(OC)c(OC)cc3NC(=O)c3cc(=O)c4ccc(C)cc4o3)cc2)Cc2ccc3c(cnn3C)c2)c1` [Compound 222]: 100 to 250 nM; for `COc1cc(NC(=O)c2cc(=O)c3ccccc3o2)c(C(=O)Nc2ccc(CCN(Cc3cncc(O)c3)Cc3ccc4c(cnn4C)c3)cc2)cc1OC` [Compound 223]: 100 to 250 nM.
Then `COc1cc(NC(=O)c2cc(=O)c3ccccc3o2)c(C(=O)Nc2ccc(CCN(Cc3ccc(N)nc3)Cc3ccc4c(cnn4C)c3)cc2)cc1OC` [Compound 224], with > 1000 nM.
In the case of `COc1cc(NC(=O)c2cc(=O)c3ccccc3o2)c(C(=O)Nc2ccc(CCN(Cc3ccc4c(cnn4C)c3)Cc3ccc[n+]([O-])c3)cc2)cc1OC` [Compound 225], the IC50 is > 1000 nM.
The same measure for `COc1cc(NC(=O)c2cc(=O)c3ccccc3o2)c(C(=O)Nc2ccc(CCN(Cc3ccc4c(cnn4C)c3)Cc3cccnc3N)cc2)cc1OC` [Compound 226]: > 1000 nM; for `COc1cc(NC(=O)c2cc(=O)c3ccccc3o2)c(C(=O)Nc2ccc(CCN(Cc3cncc(Cl)c3)Cc3ccc4c(cnn4C)c3)cc2)cc1OC` [Compound 227]: 500 to 1000 nM.
On to `COc1cc(NC(=O)c2cc(=O)c3ccccc3o2)c(C(=O)Nc2ccc(CCN(Cc3ccc4c(cnn4C)c3)Cc3cnccc3O)cc2)cc1OC` [Compound 228], for which the IC50 was > 1000 nM.
The same measure for `COc1cc(NC(=O)c2cc(=O)c3ccccc3o2)c(C(=O)Nc2ccc(CCN(Cc3cccnc3)Cc3cnc(-c4ccccc4F)nc3)cc2)cc1OC` [Compound 229]: 250 to 500 nM.
`COc1cncc(CN(CCc2ccc(NC(=O)c3cc(OC)c(OC)cc3NC(=O)c3cc(=O)c4ccccc4o3)cc2)Cc2cnc(-c3ccccc3F)nc2)c1` [Compound 230] had an IC50 of 100 to 250 nM.
Then `COc1cc(NC(=O)c2cc(=O)c3ccccc3o2)c(C(=O)Nc2ccc(CCN(Cc3ccc4c(cnn4C)c3)C(=O)OC(C)(C)C)cc2)cc1OC` [Compound 231], with > 1000 nM; and `COc1cc(NC(=O)c2cc(=O)c3ccccc3o2)c(C(=O)NCc2ccc(CN(Cc3ccc4c(cnn4C)c3)Cc3ccccc3-n3ccnc3)cc2)cc1OC` [Compound 232], with < 100 nM.
Then `COc1cc(NC(=O)c2cc(=O)c3ccccc3o2)c(C(=O)NCc2ccc(CN(Cc3cccc(-n4ccnc4)c3)Cc3ccc4c(cnn4C)c3)cc2)cc1OC` [Compound 233], with 100 to 250 nM; and `COc1cc(NC(=O)c2cc(=O)c3ccccc3o2)c(C(=O)NCc2ccc(CN(Cc3cccnc3)Cc3ccc4c(cnn4C)c3)cc2)cc1OC` [Compound 234], with 100 to 250 nM; and `COc1cncc(CN(Cc2ccc(CNC(=O)c3cc(OC)c(OC)cc3NC(=O)c3cc(=O)c4ccccc4o3)cc2)Cc2ccc3c(cnn3C)c2)c1` [Compound 235], with 100 to 250 nM.
Then `COc1cc(NC(=O)c2cc(=O)c3ccccc3o2)c(C(=O)NCc2ccc(CN(Cc3cccc(-c4cncs4)c3)Cc3ccc4c(cnn4C)c3)cc2)cc1OC` [Compound 236], with > 1000 nM.
In the case of `COc1cc(NC(=O)c2cc(=O)c3ccccc3o2)c(C(=O)NCc2ccc(CN(Cc3ccc(-n4ccnc4)cc3)Cc3ccc4c(cnn4C)c3)cc2)cc1OC` [Compound 237], the IC50 fell in the range of 100 to 250 nM.
For `COc1cc(NC(=O)c2cc(=O)c3ccccc3o2)c(C(=O)NCc2ccc(CN(Cc3ccc(-c4cncs4)cc3)Cc3ccc4c(cnn4C)c3)cc2)cc1OC` [Compound 238], the IC50 was > 1000 nM.
Then `COc1cc(NC(=O)c2cc(=O)c3ccccc3o2)c(C(=O)Nc2ccc(CCN(Cc3cncc(OCC(C)C)c3)Cc3ccc4c(cnn4C)c3)cc2)cc1OC` [Compound 239], with > 1000 nM; and `COc1cc(NC(=O)c2cc(=O)c3ccccc3o2)c(C(=O)Nc2ccc(CCN(Cc3cncc(OCCN4CCOCC4)c3)Cc3ccc4c(cnn4C)c3)cc2)cc1OC` [Compound 240], with 250 to 500 nM.
The same measure for `COc1cc(NC(=O)c2cc(=O)c3ccccc3o2)c(C(=O)Nc2ccc(CCN(Cc3ccc(-n4ccnc4C)cc3)Cc3ccc4c(cnn4C)c3)cc2)cc1OC` [Compound 241]: > 1000 nM; for `COc1cc(NC(=O)c2cc(=O)c3ccccc3o2)c(C(=O)Nc2ccc(CCN(Cc3cccc(OC[C@@H]4CO[C@@](Cn5ccnc5)(c5ccc(Cl)cc5Cl)O4)c3)Cc3ccc4c(cnn4C)c3)cc2)cc1OC` [Compound 242]: 250 to 500 nM; for `COc1cc(NC(=O)c2cc(=O)c3ccccc3o2)c(C(=O)Nc2ccc(CCN(Cc3ccc(-n4ccnc4C)cc3)Cc3cccc(-n4ccnc4)c3)cc2)cc1OC` [Compound 243]: > 1000 nM.
